{"source": "patent US20050272677A1", "about": "“Delivery of a substance to a pre-determined site” (priority 2002, published 2005)", "molecules": {"B1": {"name": "G22C E. coli (protein, UniProt P0A742 1-136, looked up, variant G22C)", "Large-conductance …": "MSIIKEFREFAMRGNVVDLAVCVIIGAAFGKIVSSLVADIIMPPLGLLIGGIDFKQFAVTLRDAQGDIPAVVMHYGVFIQNVFDFLIVAFAIFMAIKLINKLNRKKEEPAAAPAPTKEEVLLTEIRDLLKEQNNRS"}}, "key": {"[1]": {"assay": "In vivo delivery of luciferase DNA complexed with Sunfish amphiphiles", "set-up": "species or system mouse", "conditions": "24 hours; efficiency order SF-46>SF-36>SF-6>SF-30>SF-63", "protocol": "Sunfish (SF) amphiphiles were tested and compared to DOTAP, a commercially available amphiphile (Avanti Polar Lipids). The used plasmid DNA codes for Luciferase, which is expressed upon transfection. Luciferase activity represents the efficiency of transfection. Liposomes were prepared by drying the Sunfish amphiphiles or DOTAP in glass tubes under a nitrogen flow followed by being under vacuum for one hour. The lipid film was resuspended in 20% sucrose by mixing and warming up for five minutes to 60° C. in a water bath. The liposomal suspension was then sonicated for three minutes. For lipoplexes formation, plasmid DNA (30 μg/mouse) diluted in 20% sucrose was added to the liposomes (450 nmol/mouse) under mixing. The lipoplexes were allowed to rest at room temperature for […] and were intravenously injected (150 μl) in male BALB/c mice. Organs (lungs, heart, liver, spleen and kidneys) were collected 24 hours after injection for analysis. Luciferase activity was measured in homogenates of the different organs and related to a standard curve obtained with purified recombinant Luciferase."}, "[2]": {"tested_on": "neurospheres (neural stem cells)", "assay": "Ex vivo transfection of neurospheres with pEGFP-N1 lipoplexes", "type": "cell-based, mice", "conditions": "4 hours incubation, read after two days", "protocol": "Neural stem cells were isolated from the forebrain of mice embryos and cultured in the presence of epidermal growth factor (EGF) and fibroblast growth factor (FGF). In the presence of these growth factors, neural stem cells form neurospheres, clusters of cells that grow in suspension.\nPrior to transfection of neurospheres, the spheres were immobilized on Labtek culture plates that were coated with poly-ornithine. Subsequently, neurospheres were incubated for 4 hours with SF-6/DOPE (1:1 molar ratio), SF-63, SF-80/DOPE (1:1 molar ratio), or Lipofectamine 2000 lipoplexes, containing plasmid DNA encoding Enhanced Green Fluorescent Protein (pEGFP-N1). After two days, the transfection efficiency was determined with fluorescence microscopy."}, "[3]": {"tested_on": "pB104 strain (MscL null E. coli)", "assay": "Growth assay of MscL mutants on agar plates with or without IPTG", "type": "cell-based", "set-up": "key: ++++: growth equal to cells expressing wild-type MscL; growth is indicated by ++++ to −; growth is indicated by ++++ to −; growth is indicated by ++++ to −; −: an absence of growth", "conditions": "pB104 with Lac-inducible plasmid", "protocol": "The constructs of the MscL-6His mutants were constructed using standard molecular biology techniques. The mutants were tested in the pB104 strain (MscL null E. coli) by a growth assay on agar plates with or without IPTG (K. Yoshimura et al., 1999, Biophys. J. 77:1960-1972).\nThe first phenotype (++) grows like the single G22S mutant."}, "MscL [4]": {"tested_on": "MscL", "conditions": "spheroplasts", "protocol": "Patch-clamp experiments on spheroplast allow quantitation of the tension sensitivity because of the presence of an internal control, which is the mechanosensitive channel of small conductance (MscS). […] For most clinical applications, it is important that the channel remains closed at pH values of 7.4.\nGiant spheroplasts were prepared as described before and electrophysiological measurements were done by using symmetrical buffers, both in the bath and in the pipette. The gating threshold of MscL (or its mutant) is given as the ratio of the suction required to open MscL to that at which MscS opens.\nGiant spheroplasts were prepared as described in P. Blount, et al., 1999, Methods Enzymol. 294:458-482."}, "[5]": {"tested_on": "pB104 strain (MscL null E. coli)", "assay": "MTSET shock assay on agar plates with IPTG", "type": "cell-based", "set-up": "Growth −MTSET-shock: key to the marks not given beside the values", "protocol": "The constructs of the G20C^Ll, V21C^Ll and G22C^Ec MscL-6His mutants were constructed using standard molecular biology techniques. The mutants were tested in pB104 strain (MscL null E. coli) by a MTSET shock assay on agar plates with IPTG (A. F. Batiza, et al., 2002, PNAS, 99:5643-5648)."}, "MscL [6]": {"target": "T1, MscL (Escherichia coli, UniProt P0A742)", "T1 sequence (P0A742 whole entry, looked up)": "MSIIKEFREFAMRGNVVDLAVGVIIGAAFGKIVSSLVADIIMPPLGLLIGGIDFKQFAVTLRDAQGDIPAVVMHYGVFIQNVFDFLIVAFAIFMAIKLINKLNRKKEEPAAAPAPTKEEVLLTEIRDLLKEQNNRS", "type": "biochemical, E. coli", "protocol": "(§1) Results Overexpression and Purification of the MscL Channel Protein\n(§2) Samples were prepared and calcein efflux was monitored as described elsewhere in Example 1.\n(§3) 300 μl of detergent-treated liposomes were gently mixed with 240 μl of 0.25 mg/ml purified MscL-mutant G22C in elution buffer containing 0.2% Triton X-100. The mixture was incubated at 60° C. for 45 minutes, followed by the addition of an equal volume (540 μl) of calcein-loading buffer, containing 200 mM calcein, 25 mM Tris, 1 mM EDTA, pH 8.0. After addition of 20 mg of Triton X-100-absorbing Bio-Beads SM-2, the mixture was gently agitated for one hour at room temperature. Subsequently, 80 mg Bio-Beads were added and incubated at 4° C. overnight under mild agitation. Samples were prepared for calcein efflux assay as described elsewhere."}, "MscL [7]": {"tested_on": "MscL", "conditions": "pH 6; Yoshimura et al. 1999; cited from earlier work"}, "MscL [8]": {"target": "T2, MscL (Escherichia coli, UniProt P0A742)", "T2 construct": "made in house; host or cells: E. coli PB104", "assay": "Release from heparin sulfate loaded liposomes with an applied electric field", "conditions": "liposome with calcein, negative potential", "protocol": "In vitro release profiles of a model drug were determined. Liposomes, as in Example 1, with and without MscL-6His, were prepared in the presence of the dye, calcein and heparin sulfate, a natural polymer found in secretory granules. A liposome was inserted into the tip of a glass pipette with the application of suction. The pipette voltage relative to the bath was controlled by a current-to-voltage converter. The solution in both the bath and the pipette was buffered to 6.5 with histamine dichloride and phosphoric acid. An Axopatch 200B was used to apply voltages and to sample the currents at 2.5 ms intervals. Swelling was induced by the application of a negative potential. To measure the swelling, the isolated liposomes were imaged and analyzed as described (J. M. Fernandez, et al., 1991, Biophys. J. 59:1022-1027, and J. R. Monck, et al., 1991; Biophys. J. 59:39-47)."}, "MscL-mutant G22C": {"target": "MscL-mutant G22C (Escherichia coli, UniProt P0A742, G22C)", "conditions": "DOPC:DOPS (9:1) liposomes, 1 mM MTSET", "procedure": "DOPC:DOPS (9:1 mol/mol) liposomes containing the G22C MscL were prepared as described previously. […] The labeled insulin was encapsulated by three freeze-thaw cycles, followed by extrusion through a 400 nm polycarbonate membrane.\nSamples were taken at different time points and triton was added as a control for maximum fluorescence (100%). Samples were filtered over a 450 nm Cellulose Nitrate filter (Schleicher & Schuell BA85). The filtrate of 2 ml was retained and the fluorescence of 200 μl of each filtrate was monitored in a f1600 platereader (Bio-Tek). All experiments were performed in triplo."}, "MscL [9]": {"target": "MscL (Escherichia coli, UniProt P0A742, G22C)", "type": "biochemical, E. coli", "set-up": "made in house; host or cells: E. coli PB104", "conditions": "DOPC:DOPS (90:10) liposomes, 1 mM MTSET", "protocol": "as §1, §2, §3"}}, "note": "Read-outs that look alike come from different tables or passages of the source.", "data": [{"molecule": "CCCCCCCC/C=C\\CCCCCCCCCc1ccc[n+](CCCCCCCC/C=C\\CCCCCCCC)c1.[Cl-]", "note": "[SF-63, 1-(9′-cis-octadecenyl)-3-(10″-cis-nonadecenyl)pyridinium Chloride]", "values": [{"measurement": "gene expression (Luciferase) after intravenous injection of complexed DNA", "setting": "[1]", "value": "resulted in gene expression in the lungs"}, {"measurement": "transfection efficiency (GFP, fluorescence microscopy)", "setting": "[2]", "value": "constant"}]}, {"molecule": "WT: wild-type E. coli MscL (6His construct)", "values": [{"measurement": "Growth on agar plates +IPTG", "setting": "[3]; with IPTG", "value": "++++"}, {"measurement": "Growth on agar plates −IPTG", "setting": "[3]; without IPTG", "value": "++++"}, {"measurement": "Gating threshold (ratio of activation pressure to that of MscS)", "setting": "MscL [4]; pH 5.85", "value": "1.53 ± 0.185"}, {"measurement": "Gating threshold (ratio of activation pressure to that of MscS)", "setting": "MscL [4]; pH 7.5", "value": "1.56 ± 0.139"}, {"measurement": "Growth after +MTSET-shock", "setting": "[5]", "value": "++++"}, {"measurement": "Growth −MTSET-shock", "setting": "[5]", "value": "++++"}, {"measurement": "calcein efflux upon osmotic downshock", "setting": "MscL [6]", "value": "greater efflux of calcein than liposomes without MscL"}, {"measurement": "Gating threshold (ratio of activation pressure to that of MscS)", "setting": "MscL [7]", "value": "1.64 ± 0.08"}]}, {"molecule": "heparin sulfate", "values": [{"measurement": "swelling on applied voltage", "setting": "MscL [8]", "value": "swelled instantaneously and predictably with the application of a negative voltage"}]}, {"molecule": "B1", "values": [{"measurement": "Growth after +MTSET-shock", "setting": "[5]", "value": "−"}, {"measurement": "Growth −MTSET-shock", "setting": "[5]", "value": "++++"}, {"measurement": "FITC insulin efflux", "setting": "MscL-mutant G22C", "value": "release of FITC insulin through MscL-mutant G22C upon activation with 1 mM MTSET"}, {"measurement": "encapsulated calcein released", "setting": "MscL [9]", "value": 80, "unit": "%"}, {"measurement": "time in which half of the MscL-mediated efflux occurs", "setting": "MscL [9]", "value": "seven"}]}]}
